Like-named read-outs stand apart in the source and are kept apart here. Some results are limits rather than exact numbers.

Assay [1] addresses T1, SARS CoV-2 PLpro (Severe acute respiratory syndrome coronavirus 2 (2019-nCoV) (SARS-CoV-2), UniProt P0DTD1). Briefly: biochemical. In kind it is biochemical.
The target of assay [2] is T1, SARS CoV-2 PLpro. Kind of assay: biochemical. Type of assay: binding.
Where [3] appears, read: Table 7, read-out: Enzymatic assay IC50.
[4] abbreviates: Table 7, read-out: SPR binding assay KD.
Where [5] appears, read: read-out: Enzyme inhibition IC50.
Where [6] appears, read: read-out: SPR binding assays KD.

As to `Cc1ccc([N+](=O)[O-])cc1C(=O)NC(C)c1c[nH]c2ccccc12` (stereo not drawn), the IC50 in assay [1] (setting [3]) is above 100 µM.

In the case of `Cc1ccc(NC2CNC2)cc1C(=O)N[C@H](C)c1cccc(-c2ccc(CN[C@H]3CC[C@@H](OC(=O)/C=C/c4cccnc4)C3)s2)c1`, the concentration for half-maximal inhibition (IC50) in assay [1] (setting [3]) was determined as 0.387 µM.

With `Cc1ccc(NC2CNC2)cc1C(=O)N[C@H](C)c1cccc(-c2ccc(CO)s2)c1`, the IC50 in assay [1] (setting [3]) was 1.57 µM.

With `Cc1ccc(NC2CNC2)cc1C(=O)N[C@H](C)c1cccc(-c2ncc(CN3CCCC3)s2)c1`, the IC50 in assay [1] (setting [3]) is 3.14 µM.

Regarding `CCOC(=O)[C@@H]1CC[C@H](NCc2cnc(-c3cccc([C@@H](C)NC(=O)c4cc(NC5CNC5)ccc4C)c3)s2)C1`, in assay [1] (setting [3]), the IC50 was 0.496 µM.

Turning to `Cc1ccc(NC2CNC2)cc1C(=O)N[C@H](C)c1cccc(-c2ccc(CNC(=O)C(F)(F)C(F)(F)F)s2)c1`, the IC50 in assay [1] (setting [3]) was 0.442 µM.

Consider `Cc1ccc(N)cc1CNC(C)c1cccc2ccccc12` (stereo not drawn) [DY2-64], for which the “PLpro inhibition potency, in words (SAR)” value in assay [1] is “sharp decline in potency”.

Take `Cc1ccc(N)cc1S(=O)(=O)NC(C)c1cccc2ccccc12` (stereo not drawn) [DY3-63]: in assay [1], the “PLpro inhibition potency, in words (SAR)” value is listed as “sharp decline in potency”.

Consider `Cc1ccc(NC2CN(C(=O)OC(C)(C)C)C2)cc1C(=O)N[C@H](C)c1cccc2ccccc12` [Example 1, Tert-butyl (R)-3-((4-methyl-3-((1-(naphthalen-1-yl)ethyl)carbamoyl)phenyl)amino)azetidine-1-carboxylate], for which, in assay [1] (read-out: Enzymatic assay IC50), the IC50 was 6.1 µM. The Kd in assay [2] (read-out: SPR binding assay KD) is 16 µM.

Take `Cc1ccc(NC2CCN(C(=O)OC(C)(C)C)CC2)cc1C(=O)N[C@H](C)c1cccc2ccccc12` [Example 2, Tert-butyl (R)-4-((4-methyl-3-((1-(naphthalen-1-yl)ethyl)carbamoyl)phenyl)amino)piperidine-1-carboxylate]: in assay [1] (read-out: Enzymatic assay IC50), the IC50 is 1.1 µM. For the same compound, the Kd in assay [2] (read-out: SPR binding assay KD) came out at 4.7 µM.

Regarding `Cc1ccc(NC(=O)C2CN(C(=O)OC(C)(C)C)C2)cc1C(=O)N[C@H](C)c1cccc2ccccc12` [Example 3, Tert-butyl (R)-3-((4-methyl-3-((1-(naphthalen-1-yl)ethyl)carbamoyl)phenyl)carbamoyl)azetidine-1-carboxylate], in assay [1] (read-out: Enzymatic assay IC50), the IC50 came to 5.5 µM. Besides, in assay [2] (read-out: SPR binding assay KD), the Kd worked out at 32.6 µM.

Turning to `Cc1ccc(NC(=O)C2CCN(C(=O)OC(C)(C)C)CC2)cc1C(=O)N[C@H](C)c1cccc2ccccc12` [Example 4, Tert-butyl (R)-4-((4-methyl-3-((1-(naphthalen-1-yl)ethyl)carbamoyl)phenyl)carbamoyl)piperidine-1-carboxylate], in assay [1] (read-out: Enzymatic assay IC50), the IC50 came out at 6 µM. Further, in assay [2] (read-out: SPR binding assay KD), the Kd was found to be 31.1 µM.

As for `Cc1ccc(NC2CNC2)cc1C(=O)N[C@H](C)c1cccc2ccccc12` [Example 5, (R)-5-(azetidin-3-ylamino)-2-methyl-N-(1-(naphthalen-1-yl)ethyl)benzamide], in assay [2] (setting [4]), the Kd was determined as 0.81 µM.

Regarding `Cc1ccc(N)cc1C(=O)NC(C)c1cccc2cc[nH]c12` (stereo not drawn) [Example 18, N-(1-(1H-indol-7-yl)ethyl)-5-amino-2-methylbenzamide], in assay [1] (read-out: Enzymatic assay IC50), the IC50 was determined as 4.7 µM. The Kd in assay [2] (read-out: SPR binding assay KD) was found to be 30.3 µM.

On to `Cc1ccc(N)cc1C(=O)NC(CO)c1cccc2ccccc12` (stereo not drawn) [Example 26, 5-amino-N-(2-hydroxy-1-(naphthalen-1-yl)ethyl)-2-methylbenzamide], for which the IC50 in assay [1] (setting [3]) was around 100 µM.

Consider `Cc1ccc(N)cc1C(=O)N[C@H](C)c1c(O)ccc2ccccc12` [Example 27, (R)-5-amino-N-(1-(2-hydroxynaphthalen-1-yl)ethyl)-2-methylbenzamide], for which, in assay [1] (setting [3]), the IC50 is above 100 µM. The Kd in assay [2] (read-out: SPR binding assay KD) was determined as 184 µM.

For the compound `Cc1ccc(N(C)C2CNC2)cc1C(=O)N[C@H](C)c1c(OC2CNC2)ccc2ccccc12` [Example 30, (R)-5-(azetidin-3-yl(methyl)amino)-N-(1-(2-(azetidin-3-yloxy)naphthalen-1-yl)ethyl)-2-methylbenzamide], the IC50 in assay [1] (setting [3]) was above 100 µM.

Regarding `Cc1ccc(N)cc1C(=O)N[C@H](C)c1cccc2cccnc12` [Example 35, (R)-5-amino-2-methyl-N-(1-(quinolin-8-yl)ethyl)benzamide], the Kd in assay [2] (setting [4]) was above 1000 µM.

As for `CN(C)CC[C@@H](NC(=O)c1cccc(N(C)C2CNC2)c1)c1cccc2ccccc12` [Example 41, (R)-3-(azetidin-3-yl(methyl)amino)-N-(3-(dimethylamino)-1-(naphthalen-1-yl)propyl)benzamide], in assay [1] (setting [3]), the IC50 was above 100 µM.

As to `Cc1ccc(N)cc1S(=O)(=O)N[C@H](C)c1cccc2ccccc12` [Example 48, (R)-5-amino-2-methyl-N-(1-(naphthalen-1-yl)ethyl)benzenesulfonamide], the IC50 in assay [1] (setting [3]) was above 100 µM.

As to `Cc1ccc(N(C)C2CNC2)cc1C(=O)N[C@H](C)c1cccc2c1ccn2CC1CCC1` [Example 50, (R)-5-(azetidin-3-yl(methyl)amino)-N-(1-(1-(cyclobutylmethyl)-1H-indol-4-yl)ethyl)-2-methylbenzamide], in assay [1] (read-out: Enzymatic assay IC50), the IC50 came to 3.3 µM. Moreover, the Kd in assay [2] (read-out: SPR binding assay KD) amounted to 14.1 µM.

Regarding `C[C@@H](NC(=O)c1cc(NC2CNC2)ccc1Cl)c1csc2ccccc12` [Example 54, (R)-5-(azetidin-3-ylamino)-N-(1-(benzo[b]thiophen-3-yl)ethyl)-2-chlorobenzamide], the IC50 in assay [1] (read-out: Enzymatic assay IC50) turned out to be 8.5 µM. Besides, in assay [2] (read-out: SPR binding assay KD), the Kd was found to be 33 µM.

As for `Cc1ccc(NC2CN(C(=O)OC(C)(C)C)C2)cc1C(=O)N[C@H](C)c1cccc2ccccc12` [ZN-2-180], the IC50 in assay [1] (setting [5]) stood at 6.08 µM. In addition, the dissociation constant Kd in assay [2] (setting [6]) worked out at 16 µM.

For the compound `Cc1ccc(NC2CCN(C(=O)OC(C)(C)C)CC2)cc1C(=O)N[C@H](C)c1cccc2ccccc12` [ZN-2-181], the IC50 in assay [1] (setting [5]) turned out to be 1.1 µM. Further, in assay [2] (setting [6]), the Kd turned out to be 4.7 µM.

With `Cc1ccc(NC(=O)C2CCN(C(=O)OC(C)(C)C)CC2)cc1C(=O)N[C@H](C)c1cccc2ccccc12` [ZN-2-183], the IC50 in assay [1] (setting [5]) came out at 6 µM. For the same compound, the dissociation constant (Kd) in assay [2] (setting [6]) was determined as 31.1 µM.

For the compound `Cc1ccc(NC2CNC2)cc1C(=O)N[C@H](C)c1cccc2ccccc12` [ZN-2-184], in assay [1] (compared with GRL0617 / parent), the “PLpro inhibition potency, in words (SAR)” value was “two-fold improvement relative to GRL0617”. Moreover, in assay [1] (setting [5]), the IC50 came to 1.01 µM. Also, the Kd was determined as 1.17 µM in assay [2] (KD2), 1.06 µM in assay [2] (KD3), 0.856 µM in assay [2] (KD4) and 1.03 µM in assay [2] (setting [6]). Moreover, the “rate of association relative to GRL0617” value in assay [2] (SPR) is reported as “twofold increase in rate of association”. In assay [2] (SPR association rate, average of replicates), the Ave ka worked out at 340000 M⁻¹ s⁻¹. Further, in assay [2] (SPR association rate, replicate 1), the ka1 is 426000 M⁻¹ s⁻¹. The ka2 in assay [2] (SPR association rate, replicate 2) was found to be 348000 M⁻¹ s⁻¹. Moreover, the ka3 in assay [2] (SPR association rate, replicate 3) was 231000 M⁻¹ s⁻¹. Moreover, in assay [2] (SPR association rate, replicate 4), the ka4 was determined as 356000 M⁻¹ s⁻¹. The compound also had an Ave kd in assay [2] (SPR dissociation rate, average of replicates) of 0.349 s⁻¹. In addition, the kd1 in assay [2] (SPR dissociation rate, replicate 1) is 0.438 s⁻¹. The compound further yielded a kd2 in assay [2] (SPR dissociation rate, replicate 2) of 0.407 s⁻¹. The compound further came in with a kd3 in assay [2] (SPR dissociation rate, replicate 3) of 0.246 s⁻¹. In addition, the kd4 in assay [2] (SPR dissociation rate, replicate 4) came out at 0.305 s⁻¹.

Regarding `Cc1ccc(N)cc1C(=O)NC(CO)c1cccc2ccccc12` (stereo not drawn) [ZN-3-13], the IC50 in assay [1] (Table 11, read-out: Enzyme inhibition IC50) is around 100 µM. For the same compound, in assay [2] (setting [6]), the Kd was 39.1 µM.

Consider `Cc1ccc(CNCC(=O)O)cc1C(=O)N[C@H](C)c1cccc2ccccc12` [ZN-3-56], for which the “PLpro inhibition potency, in words (SAR)” value in assay [1] (compared with GRL0617 / parent) is listed as “slight improvement of potency over GRL0617”.

As for `C=C(N[C@H](C)c1cccc2ccccc12)C(=O)c1cc(N(C)C2CNC2)ccc1Cl` [ZN-3-70], the IC50 in assay [1] (Table 10, read-out: Enzyme inhibition IC50) was 10.7 µM. For the same compound, in assay [2] (Table 10, read-out: SPR binding assays KD), the Kd is 41.9 µM.

Consider “(R)-6-amino-3-methyl-N- (1-(naphthalen-1- yl)ethyl)picolinamide [Example 40]”, for which, in assay [1] (read-out: Enzymatic assay IC50), the IC50 was in the range of 10 to 100 µM. Besides, the Kd in assay [2] (read-out: SPR binding assay KD) is above 1000 µM.

The values above are taken from patent US20240166598A1, “COMPOUNDS, COMPOSITIONS, AND METHODS OF USING THE SAME” (priority 2021, published 2024).
